Source: patent publication US4568689A, “Pharmaceutical preparation for the treatment of hypertensive disease and myocardial infarction” (priority 1983, dated 1986)
Entries after “also recorded” stand apart in the source; their conditions may differ.

How the values were obtained:
[1] = tested on: experimental necrosis of myocardium caused by introduction of adrenaline; experiment: histological analysis of experimental necrosis of myocardium caused by adrenaline; type: in vivo, rats of the Wistar line
Method: A comparative study of the effects produced by the preparation according to the present invention and finoptin on an experimental necrosis of myocardium caused by introduction of adrenaline.
The experiments were carried out on rats of the Wistar line of gregarious keeping, both sexes, with a mass of 170 to 225 g. Each preparation was studied on a separate group of animals: (group of adrenaline-control, group of finoptin, group of the preparation according to the present invention). 72 rats were used in the experiments altogether. Injuries of myocardium were caused by way of a single-time subcutaneous administration of a 0.1% solution of adrenaline hydrochloride in the dose of 3 mg per kg of the rat's bodyweight. […] The preparation of this invention was administered subcutaneously, finoptin-per os. On the first day of the experiment the preparations were administered 30 minutes after injection of adrenaline hydrochloride. The experiment lasted for 19 days. Slaughters were effected on the 4th, 8th, 12th and 19th day of the experiment. The animals were decapitated. The heart was fixed in a 10% solution of neutral formalin and sealed in paraffin. Serial sections with the thickness of 5-6μ were coloured by Ehrlich hematoxylin-eosin. The state of vessels of myocardium, cardiomyocytes and interstitial tissue were evaluated by histological analysis.

[2] = tested on: hemodynamic effects of acetylcholine, neoepinephrine, noradrenaline, histamine and angiotensin; experiment: influence on hemodynamic effects of acetylcholine, noradrenaline, neoepinephrine, angiotensin and histamine in narcotized cats; type: in vivo
Method: The effect of the pharmaceutical preparation according to the present invention on the arterial pressure and vegetative responses was studied in acute experiments on cats with a mass of 2.8-4.0 kg narcotized with α-glucochloralose (90 mg/kg) and urethane (100 mg/kg, intraperitoneally). The breathing, arterial pressure in the common carotid artery and electrocardiogram of the second standard lead were recorded.
The influence of the preparation according to the present invention on hemodynamic effects of acetylcholine (0.1 μg/kg) neoepinephrine (0.2 μg/kg), noradrenaline (1 μg/kg), histamine (1.5 μg/kg) and angiotensin (0.1 μg/kg) was also studied. The preparation of this invention was intravenously administered in the form of a 2.5% solution in doses of 0.5 to 10 mg/kg. The peripheral part of the vagus nerve was irritated by supromaximum pulses with the frequency of 30 Hz and duration of 0.1 ms.

[3] = tested on: neoepinephrine model of infarction (focal necrosis) of myocardium in rats; experiment: survival of rats with the neoepinephrine model of infarction; type: in vivo, rats of the Wistar line; conditions: 25 mg/kg subcutaneously, 7 days
Method: The study of the effect produced by the preparation according to the present invention on survival of animals with a neoepinephrine model of infarction was effected in comparison with the prior art preparations--obzidan and finoptin.
The formation of a neoepinephrine model of infarction (focal necrosis) of myocardium in rats was effected by way of an every-day subcutaneous administration of a 0.1% solution of neoepinephrine in the dose of 3 mg/kg for 7 days to rats of the Wistar line with a mass of 160-200 g. The test preparations were subcutaneously administered to the rats in the form of a 1.25% aqueous solution in the dose of 25 mg/kg 0.5 hour after injection of neoepinephrine also for 7 days.

[4] = tested on: arterial pressure of rats with spontaneous hypertension; experiment: hypotensive effect, intraperitoneal, spontaneously hypertensive rats; type: in vivo
Method: The study of the hypotensive effect was carried out in experiments on spontaneously hypertensive male rats of the Akamoto-Aoki line aged 20-25 weeks. The prior art preparation-nifedipine was used for the purpose of comparison. The measurement of the arterial pressure was effected on the tail vein of the rats by the indirect method. The animals were divided into groups (10 in each) and trained for two weeks with the view to ensure their adaptation to the unit for the measurement of the arterial pressure. The level of the arterial pressure prior to administration of the test preparations was measured three times: two days, one day and directly prior to administration of the test preparations. The preparation was administered in the form of a 2.5% aqueous solution, nifedipine--in the form of a 2.5% suspension in Twin-80 intraperitoneally. […]

[5] = tested on: arterial pressure of spontaneously hypertensive rats; experiment: effect of the oral form on arterial pressure, spontaneously hypertensive rats; type: in vivo
Method: Also studied was the efficiency of the oral form of the preparation according to the present invention. […] The efficiency was studied within the range of doses from 50 to 100 mg/kg.

[6] = side effects or contraindications on administration
[7] = 4th day, grade/number of animals (6)
[8] = 8th day, grade/number of animals (6)
[9] = 12th day, grade/number of animals (6)
[10] = 19th day, grade/number of animals (5)
[11] = 25 mg/kg intraperitoneally, 30 minutes
[12] = 25 mg/kg intraperitoneally, 1 hour
[13] = 25 mg/kg intraperitoneally, 2 hours
[14] = 25 mg/kg intraperitoneally, 4 hours
[15] = 50 mg/kg intraperitoneal, 30 minutes
[16] = 50 mg/kg intraperitoneally, 30 minutes
[17] = 50 mg/kg intraperitoneally, 1 hour
[18] = 50 mg/kg intraperitoneally, 2 hours
[19] = 50 mg/kg intraperitoneally, 4 hours
[20] = 50 mg/kg intraperitoneally, 24 hours
[21] = 24 hours after a single-time administration

SMILES: C[N+]1(C)CC(CC(=O)[O-])C(=O)N1 (stereo not shown) [Preparation of this invention, (1,1-dimethyl-3-oxopyrazolin-1-io-4-yl)acetate]
- changes in cardiomyocytes ([1]; 4th day, 25 mg/kg): The granular-lumpy decomposition, necrosis of 3-5 cells is observed in a half of the investigated animals
- changes in interstitial tissue ([1]; 4th day, 25 mg/kg): The formation of granulomae on the side of the interstitial tissue is observed in all of the animals
- changes in vessels ([1]; 4th day, 25 mg/kg): the left ventricle capillaries are plethoric. In two cases insignificant infiltrations of the adventitia with lymphoid cells are observed
- edema (interstitial tissue) [1, 7]: 0/6
- necrobiotic regions in the wall [1, 7]: 0/6
- necrosis of more than 5 cells [1, 7]: 0/6
- wall necrosis (vessels) [1, 7]: 0/6
- overall therapeutic effect on the myocardium ([1]; 4th, 8th, 12th and 19th day): possesses a clearly manifested therapeutic effect allowing no significant changes in the myocardium, prevents the growth of the scarring tissue, contributes to the restoration of morphological structures of the myocardium
- changes in interstitial tissue ([1]; 8th day, 25 mg/kg): the formation of the scarring tissue is to a lesser extent than in the control group
- changes in vessels ([1]; 8th day, 25 mg/kg): the coronary vessels are without changes; in some cases insignificantly plethoric vessels and changes in cells in the form of swelling are observed
- diffusive round-cell infiltration [1, 8]: 0/6
- edema (interstitial tissue) [1, 8]: 0/6
- infiltration of the adventitia with lymphoid cells [1, 8]: 0/6
- necrobiotic regions in the wall [1, 8]: 0/6
- necrosis of more than 5 cells [1, 8]: 0/6
- nuclei (pyknosis) [1, 8]: 0/6
- wall necrosis (vessels) [1, 8]: 0/6
- changes in cardiomyocytes ([1]; 12th day, 25 mg/kg): In comparison with the 8th day of the experiment eosinophilia and contructure type changes are decreased
- changes in interstitial tissue ([1]; 12th day, 25 mg/kg): the scarring tissue formation is more distinctly pronounced. These changes are substantially less revealed than the changes in the control group (adrenaline)
- changes in vessels ([1]; 12th day, 25 mg/kg): an insignificant plethora of the vessels is observed on the 12th day of the experiment
- Nuclei (pykhnosis) [1, 9]: 0/6
- diffusive round-cell infiltration [1, 9]: 0/6
- edema (interstitial tissue) [1, 9]: 0/6
- infiltration of the adventitia with lymphoid cells [1, 9]: 0/5
- necrobiotic regions with changes in the vessel wall [1, 9]: 0/6
- necrosis of more than 5 cells [1, 9]: 0/6
- wall necrosis (vessels) [1, 9]: 0/6
- changes in cardiomyocytes ([1]; 19th day, 25 mg/kg): In half of the animals the granular-lumpy decomposition is less pronounced. Necrosis of individual cells and eosinophilia, as well as contructure type changes are also observed
- changes in connective tissue ([1]; 19th day, 25 mg/kg): a less pronounced formation of the scarring tissue is to be noted as compared to the control group
- changes in vessels ([1]; 19th day, 25 mg/kg): By the 19th day this phenomena becomes more clearly pronounced; also recorded: no changes were noticed on the part of the coronary vessels. The plethora of capillaries in the left ventricle wall is noticed
- changes in the endothelium [1, 10]: 0/5
- infiltration of the adventitia with lymphoid cells [1, 10]: 0/5
- necrobiotic regions with changes in the vessel wall [1, 10]: 0/5
- necrosis of more than 5 cells [1, 10]: 0/5
- nuclei (pyknosis) [1, 10]: 0/5
- Hemodynamic effect, Neoepinephrine ([2]; 10 mg/kg intravenously, neoepinephrine 0.2 μg/kg): -35%
- Hemodynamic effect, Noradrenaline ([2]; 0.5-3.0 mg/kg intravenously, noradrenaline 1 μg/kg): -10%
- blocking of α- and β-receptors and the cholinergic system ([2]; higher doses (10 mg/kg)): substantially blocks both α- and β-receptors, as well as the cholinergic system
- direct influence on effects of angiotensin and histamine ([2]; higher doses (10 mg/kg)): does not provide any direct influence on effects of angiotensin and histamine
- Percentage of survival ([3]; after 19 days): 92%
- Number of survived animals after 19 days ([3]; groups initially 12 animals): 11
- Variation of arterial pressure, diastolic [4, 11]: -1 % of the initial
- Variation of arterial pressure, systolic [4, 11]: -3 % of the initial
- Variation of arterial pressure, diastolic [4, 12]: -7 % of the initial
- Variation of arterial pressure, systolic [4, 12]: -5 % of the initial
- Variation of arterial pressure, diastolic [4, 13]: -19 % of the initial
- Variation of arterial pressure, systolic [4, 13]: -3 % of the initial
- Variation of arterial pressure, diastolic [4, 14]: -18 % of the initial
- Variation of arterial pressure, systolic [4, 14]: -7 % of the initial
- reduction of diastolic pressure [4, 15]: 23.5%
- reduction of systolic pressure [4, 15]: 17.6%
- Variation of arterial pressure, diastolic [4, 16]: -23 % of the initial
- Variation of arterial pressure, systolic [4, 16]: -17 % of the initial
- Variation of arterial pressure, diastolic [4, 17]: -28 % of the initial
- Variation of arterial pressure, systolic [4, 17]: -12 % of the initial
- Variation of arterial pressure, diastolic [4, 18]: -26 % of the initial
- Variation of arterial pressure, systolic [4, 18]: -18 % of the initial
- Variation of arterial pressure, diastolic [4, 19]: -41 % of the initial
- Variation of arterial pressure, systolic [4, 19]: -21 % of the initial
- Variation of arterial pressure, diastolic [4, 20]: -19 % of the initial
- Variation of arterial pressure, systolic [4, 20]: -17 % of the initial
- reduction of diastolic pressure [4, 21]: 28.5%
- reduction of systolic pressure [4, 21]: 18.8%
- difference between systolic and diastolic pressures ([4]; see Table 1): increases the difference between systolic and diastolic pressures
- Variation of arterial pressure, systolic ([5]; 50 mg/kg per os, 4 hours): -3 % of the initial
- Variation of arterial pressure, diastolic ([5]; 75 mg/kg per os, 1 hour): -17 % of the initial
- Variation of arterial pressure, systolic ([5]; 75 mg/kg per os, 1 hour): -10 % of the initial
- Variation of arterial pressure, diastolic ([5]; 75 mg/kg per os, 2 hours): -18 % of the initial
- superiority in duration of action over nifedipine ([5]; 75 mg/kg per os, vs nifedipine): at least 3 times
- Variation of arterial pressure, diastolic ([5]; 100 mg/kg per os, 1 hour): -8 % of the initial
- Variation of arterial pressure, systolic ([5]; 100 mg/kg per os, 1 hour): -7 % of the initial
- Variation of arterial pressure, diastolic ([5]; 100 mg/kg per os, 24 hours): -3 % of the initial
- side effects or contraindications [6]: No side effects or contraindications
